Patent US5691366A, “Nitro compounds, process for preparation thereof and use thereof” (Fujisawa Pharmaceutical Co., Ltd., priority 1991, dated 1997)

How the values were obtained:
[1] = test system: Mean Arterial Blood Pressure in Conscious Rats; assay: Effect on mean arterial blood pressure in conscious rats (oral); type: in vivo, rat (male Sprague-Dawley); settings: for Hypotensive effect Dur.: time to recover to 5% of maximal decrease; for Hypotensive effect T 1/2: time to recover to half of maximal decrease; for inhibition in vivo at 10 mg/kg / inhibition in vivo at 32 mg/kg: Rattus norvegicus, po, maximal % decrease of mean blood pressure, read-out: Hypotensive effect R max
Protocol: Male Sprague-Dawley rats, aged 9-11 weeks, were anesthetized with ether and a polyethylene cannula filled with heparin solution was inserted into the femoral artery of the rats to measure mean blood pressure. Mean blood pressure was measured with a pressure transducer and recorded on a polygraph. Two hours after operation, the drug suspended in 0.5% methyl cellulose was administered orally in a volume of 5 ml/kg. Oral hypotensive effects of each compound were expressed as the maximal decrease (R max), the half time (T 1/2) and the duration (Dur.). Briefly, R max was expressed as maximal % change compared to mean blood pressure prior to the administration of compound. T 1/2 was expressed as a time during which the hypotensive effect recovered to half of the maximal decrease. Duration was expressed as a time during which the hypotensive effect recovered to 5% of the maximal decrease.

[2] = test system: Mean Arterial Blood Pressure in Anesthetized Rats; assay: Effect on mean arterial blood pressure in anesthetized rats (intravenous); type: in vivo, rat (male Sprague-Dawley); settings: for Hypotensive effect T 1/2: i.v., time to recover to half of maximal decrease
Protocol: Male Sprague-Dawley rats, aged 9-12 weeks, were anesthetized with urethane (1.4 g/kg i.p.). A polyethylene cannula filled with heparin solution was inserted into the femoral artery of the rats to measure mean blood pressure. Mean blood pressure was measured with a pressure transducer and recorded on a polygraph. The test compound dissolved in ethanol, polyethylene glycol and distilled water (1:1:2), were administered intraveneously in a volume of 0.25 ml/kg. Intravenous hypothypotensive effects of each compound were expressed as the maximal decrease (R max) and the half time (T 1/2). Briefly, R max was expressed as maximal % change compared to mean blood pressure prior to the administration of compound. T 1/2 was expressed as a time during which the hypotensive effect recovered to half of the maximal decrease.

[3] = Rattus norvegicus, iv, 0.32 mg/kg, maximal % decrease of mean blood pressure, read-out: Hypotensive effect R max

Row | SMILES | Hypotensive effect Dur. ([1]; 10 mg/kg) [min] | Hypotensive effect T 1/2 ([1]; 10 mg/kg) [min] | inhibition in vivo at 0.32 mg/kg [2, 3] [%] | Hypotensive effect T 1/2 ([2]; 0.32 mg/kg) [min] | further results
1 | CCC(=CC(CNC(=O)c1ccncc1)=NO)C(C)[N+](=O)[O-] (centres unmarked) [Example 29, N-(4-Ethyl-2-hydroxyimino-5-nitro-3-hexen-1-yl)-4-pyridinecarboxamide] | 72.5 | 23.5 | 35 | 12.3 | Hypotensive effect Dur. ([1]; 32 mg/kg): > 300 min; Hypotensive effect T 1/2 ([1]; 32 mg/kg): 165 min; inhibition in vivo at 10 mg/kg ([1]; 10 mg/kg): 31.4%; inhibition in vivo at 32 mg/kg ([1]; 32 mg/kg): 37.1%
2 | CCC(=CC(CNC(=O)C(N)=O)=NO)C(C)[N+](=O)[O-] (centres unmarked) [Example 40] |  |  | 52.3 | 11.3 | 
3 | CCC(=CC(CNC(=O)c1sc(C)nc1C)=NO)C(C)[N+](=O)[O-] (centres unmarked) [Example 43, N-(4-Ethyl-2-hydroxyimino-5-nitro-3-hexen-1-yl)-2,4-dimethylthiazole-5-carboxamide] |  |  | 53.1 |  | 
4 | CCC(C(C)=CC(CNC(=O)c1cccnc1)=NO)[N+](=O)[O-] (single isomer, unassigned) [Example 18 B, N-(2-hydroxyimino-4-methyl-5-nitro-3-hepten-1-yl)-3-pyridinecarboxamide] | 54.7 | 26.4 |  |  | Hypotensive effect Dur. ([1]; 32 mg/kg): 97.2 min; Hypotensive effect T 1/2 ([1]; 32 mg/kg): 56.1 min; Hypotensive effect T 1/2 ([2]; 1.0 mg/kg): 20.2 min
5 | CCC(=CC(CNC(=O)c1cccnc1C)=NO)C(C)[N+](=O)[O-] (single isomer, unassigned) [Example 30 B, N-(4-Ethyl-2-hydroxyimino-5-nitro-3-hexen-1-yl)-2-methyl-3-pyridinecarboxamide] |  | 20.9 |  | 13.0 | 
6 | CCC(=CC(CNC(=O)c1cccnc1)=NO)C(CC)[N+](=O)[O-] (single isomer, unassigned) [Example 25 B, N-(4-Ethyl-2-hydroxyimino-5-nitro-3-hepten-1-yl)-3-pyridinecarboxamide] |  | 14.6 |  |  | 
7 | O=C(NCC(C=C1CCCCC1[N+](=O)[O-])=NO)c1cccnc1 (centres unmarked) [Example 21, N-[2-Hydroxyimino-3-(2-nitrocyclohexylidene)propyl]-3-pyridinecarboxamide] | 67.7 | 34.1 | 26.5 | 13.1 | Hypotensive effect Dur. ([1]; 32 mg/kg): > 300 min; Hypotensive effect T 1/2 ([1]; 32 mg/kg): 88.1 min; inhibition in vivo at 10 mg/kg ([1]; 10 mg/kg): 34.3%; inhibition in vivo at 32 mg/kg ([1]; 32 mg/kg): 34.3%
8 | CCC(=CC(CNC(=O)c1cnccc1C(N)=O)=NO)C(C)[N+](=O)[O-] (centres unmarked) [Example 28, 3-[N-(4-Ethyl-2-hydroxyimino-5-nitro-3-hexen-1-yl)-carbamoyl]-4-pyridinecarboxamide] |  |  | 22.2 |  | inhibition in vivo at 1 mg/kg ([2]; Rattus norvegicus, iv, 1.0 mg/kg, maximal % decrease of mean blood pressure, read-out: Hypotensive effect R max): 31.4%; Hypotensive effect T 1/2 ([2]; 1.0 mg/kg): 11.9 min
9 | CC(=CC(CNC(=O)c1cccnc1)=NO)C(C)[N+](=O)[O-] (single isomer, unassigned) [Example 19 B, N-(2-Hydroxyimino-4-methyl-5-nitro-3-hexen-1-yl)-3-pyridinecarboxamide] |  |  |  | 11.0 | 
10 | CCC(=CC(CNC(=O)C(N)=O)=NO)C(C)[N+](=O)[O-] (centres unmarked) [Example 40 A] | 71.1 | 25.2 |  |  | inhibition in vivo at 10 mg/kg ([1]; 10 mg/kg): 47.8%
11 | CC(=CC(CNC(=O)c1cccnc1)=NO)C(C)[N+](=O)[O-] (single isomer, unassigned) [Example 19 A, N-(2-Hydroxyimino-4-methyl-5-nitro-3-hexen-1-yl)-3-pyridinecarboxamide] |  |  | 40.3 | 12.6 | 
12 | CCC(=CC(CNC(=O)Cc1cccnc1)=NO)C(C)[N+](=O)[O-] (centres unmarked) [Example 42, N-(4-Ethyl-2-hydroxyimino-5-nitro-3-hexen-1-yl)-3-pyridylacetamide] |  |  | 44.4 | 14.2 | 
